In one data set the test system is SJSA-1. Kind of data set: Cell viability assay (MTT), SJSA-1. The conditions noted are these: read-out: SJSA-1 EC50 (72 h); 72 h, MTT.
The test system of a further data set is RKO. Kind of data set: Cell viability assay (MTT), RKO. The conditions noted are these: read-out: RKO EC50 (72 h).
The next data set has as its system Caspase 3. In words: Caspase 3 detection assay in SJSA1 cells. Format: cell-based. To be noted: SJSA1, 48 h, Caspase 3 activation over DMSO-treated cells.
For another data set, the system named is SJSA-1 cells. In words: Cell lysis by peptidomimetic macrocycles (LDH release). To be noted: SJSA-1, 1 h. Format: cell-based. In outline: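 SJSA-1 cells plated the day before, switched to RPMI with 1% FBS, then exposed 1 h at 37 °C to macrocycle at final 50 μM to 6.25 μM in 0.5% DMSO. LDH released into the supernatant was measured by kit. Controls: 0.5% DMSO (non-lytic), 10 μM melittin and 1% Triton X-100 (lytic).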

Data set [1] can be described thus: Circular dichroism (CD) analysis of alpha-helicity. Format: physicochemical. As to the method: Peptide solutions were analyzed by CD spectroscopy using a Jasco J-815 spectropolarimeter (Jasco Inc., Easton, Md.) with the Jasco Spectra Manager Ver. 2 system software. A Peltier temperature controller was used to maintain temperature control of the optical cell. Results are expressed as mean molar ellipticity (deg cm^2 dmol^−1) as calculated from the equation [0]=θobs·MRW/10*l*c where θobs is the observed ellipticity in millidegrees, MRW is the mean residue weight of the peptide (peptide molecular weight/number of residues), 1 is the optical path length of the cell in centimeters, and c is the peptide concentration in mg/ml. Peptide concentrations were determined by amino acid analysis. Stock solutions of peptides were prepared in benign CD buffer (20 mM phosphoric acid, pH 2). The stocks were used to prepare peptide solutions of 0.05 mg/ml in either benign CD buffer or CD buffer with 50% trifluoroethanol (TFE) for analyses in a 10 mm pathlength cell. Variable wavelength measurements of peptide solutions were scanned at 4° C. from 195 to 250 nm, in 0.2 nm increments, and a scan rate 50 nm per minute. The average of six scans was reported.
On the technique in general: Circular dichroism is the unequal absorption of left and right circularly polarised light.

Bridge positions count the residues as written; N and C are the ends. Square brackets hold non-standard residues; d marks the D form. Peptide text beside a SMILES is read from it. R8 = C=CCCCCCC[C@@](C)(N)C(=O)O; S8 = C=CCCCCCC[C@](C)(N)C(=O)O; R5 = C=CCCC[C@@](C)(N)C(=O)O; S5 = C=CCCC[C@](C)(N)C(=O)O

What is called EC50 is the concentration at which the effect is half-maximal. As to `CC[C@H](C)[C@H](NC(=O)[C@H](C)NC(=O)[C@H](C)NC(=O)[C@]1(C)CCCCCCC=CCCC[C@@](C)(NC(=O)[C@H](Cc2ccccc2)NC(=O)[C@@H](NC(=O)[C@H](CC(C)C)NC(C)=O)[C@@H](C)O)C(=O)N[C@@H](C)C(=O)N[C@@H](Cc2ccc(O)cc2)C(=O)N[C@@H](Cc2c[nH]c3ccccc23)C(=O)N[C@@H](C)C(=O)N[C@@H](CCC(N)=O)C(=O)N[C@@H](CC(C)C)C(=O)N1)C(=O)N[C@H](C)C(N)=O` [compound 234], the EC50 in the data set on SJSA-1 is less than 5 µM.
On the same count and under the same terms, the same measure for `CC(=O)N[C@@H](CC(C)C)C(=O)N[C@H](C(=O)N[C@@H](Cc1ccccc1)C(=O)N[C@]1(C)CCCCCCC=CCCC[C@@](C)(C(=O)N[C@@H](C)C(=O)N[C@@H](C)C(=O)N[C@@H](C)C(=O)N[C@H](C)C(=O)N[C@@H](C)C(=O)N[C@H](C)C(N)=O)NC(=O)[C@H](CC(C)C)NC(=O)[C@H](CCC(N)=O)NC(=O)[C@H](C)NC(=O)[C@H](Cc2c[nH]c3ccccc23)NC(=O)[C@H](Cc2ccc(O)cc2)NC(=O)[C@H](CCC(=O)O)NC1=O)[C@@H](C)O` (single isomer, unassigned) [compound 571]: less than 5 µM.
For the compound `CC(=O)N[C@@H](CC(C)C)C(=O)N[C@H](C(=O)N[C@@H](Cc1ccccc1)C(=O)N[C@]1(C)CCCCCCC=CCCC[C@@](C)(C(=O)N[C@@H](CO)C(=O)N[C@@H](C)C(=O)N[C@@H](Cc2ccccc2)C(N)=O)NC(=O)[C@H](CC(C)C)NC(=O)[C@H](CCC(N)=O)NC(=O)[C@H](C)NC(=O)[C@H](Cc2c[nH]c3ccccc23)NC(=O)[C@H](Cc2ccc(O)cc2)NC(=O)[C@H](C)NC1=O)[C@@H](C)O` [compound 7] (Ac-LTF[R8]AYWAQL[S5]SAF-NH2; staple 4-11), the EC50 with RKO is less than 5 µM. Also, the “caspase 0.3 μM” value in the data set on Caspase 3 (0.3 μM) is 0.93. Besides, the “caspase 1 μM” value in the data set with Caspase 3 (1 μM) worked out at 1.4. In addition, the “caspase 3 μM” value with Caspase 3 (3 μM) was determined as 5.08. Besides, in the data set on Caspase 3 (10 μM), the “caspase 10 μM” value was 21.7. Further, in the data set on Caspase 3 (30 μM), the “caspase 30 μM” value worked out at 23.96. Moreover, in the data set on SJSA-1 cells, the “6.25 μM % Lysed cells (1 h LDH)” value came out at 0%, the “25 μM % Lysed cells (1 h LDH)” value worked out at 0% and the “50 μM % Lysed cells (1 h LDH)” value was 0%. In addition, the “% Helix 50% TFE compared to 50% TFE parent (CD)” value in data set [1] (50% TFE) turned out to be 137.3%. Moreover, the “Molar Ellipticity TFE − Molar Ellipticity Benign” value in data set [1] (222 nm) is given as −20045.4 deg cm^2 dmol^−1. For the same compound, the “Molar Ellipticity 50% TFE (222 in 50% TFE)” value in data set [1] (222 nm, CD buffer with 50% TFE, 0.05 mg/ml, 4° C.) is listed as −19921.4 deg cm^2 dmol^−1. Moreover, the “Molar Ellipticity Benign (222 in 0% TFE)” value in data set [1] (222 nm, benign CD buffer (20 mM phosphoric acid, pH 2), 0.05 mg/ml, 4° C.) came to 124 deg cm^2 dmol^−1. The “% Helix benign compared to 50% TFE parent (CD)” value in data set [1] (benign buffer) is on record as −0.9%.
Regarding `CC(=O)N[C@@H](CC(C)C)C(=O)N[C@H](C(=O)N[C@@H](Cc1ccccc1)C(=O)N[C@]1(C)CCCCCCC=CCCC[C@@](C)(C(=O)N[C@@H](C)C(=O)N[C@@H](C)C(=O)N[C@H](C)C(=O)N[C@@H](C)C(=O)N[C@@H](C)C(=O)N[C@H](C)C(N)=O)NC(=O)[C@H](CC(C)C)NC(=O)[C@H](CCC(N)=O)NC(=O)[C@H](C)NC(=O)[C@H](Cc2c[nH]c3ccccc23)NC(=O)[C@H](Cc2ccc(O)cc2)NC(=O)[C@H](CCC(=O)O)NC1=O)[C@@H](C)O` [compound 569], in the data set with SJSA-1, the EC50 was less than 5 µM.
The same measure, in the same setting: the value for `CC(=O)N[C@@H](CC(C)C)C(=O)N[C@H](C(=O)N[C@@H](Cc1ccccc1)C(=O)N[C@]1(C)CCCCCCC=CCCC[C@@](C)(C(=O)N[C@@H](C)C(=O)N[C@@H](C)C(=O)N[C@@H](C)C(=O)N[C@@H](C)C(=O)N[C@@H](C)C(=O)N[C@H](C)C(N)=O)NC(=O)[C@H](CC(C)C)NC(=O)[C@H](CCC(N)=O)NC(=O)[C@H](C)NC(=O)[C@H](Cc2c[nH]c3ccccc23)NC(=O)[C@H](Cc2ccc(O)cc2)NC(=O)[C@H](CCC(=O)O)NC1=O)[C@@H](C)O` (single isomer, unassigned) [compound 579] was less than 5 µM; that for `CC(=O)N[C@@H](CC(C)C)C(=O)N[C@H](C(=O)N[C@@H](Cc1ccccc1)C(=O)N[C@]1(C)CCCCCCC=CCCC[C@@](C)(C(=O)N[C@@H](C)C(=O)N[C@H](C)C(=O)N[C@@H](C)C(=O)N[C@@H](C)C(=O)N[C@@H](C)C(=O)N[C@H](C)C(N)=O)NC(=O)[C@H](CC(C)C)NC(=O)[C@H](CCC(N)=O)NC(=O)[C@H](C)NC(=O)[C@H](Cc2c[nH]c3ccccc23)NC(=O)[C@H](Cc2ccc(O)cc2)NC(=O)[C@H](CCC(=O)O)NC1=O)[C@@H](C)O` [compound 568] was 5 to 15 µM.
Turning to `CC(=O)N[C@@H](CC(C)C)C(=O)N[C@H](C(=O)N[C@@H](Cc1ccccc1)C(=O)N[C@]1(C)CCCC=CCCCCCC[C@@](C)(C(=O)N[C@@H](C)C(=O)N[C@@H](C)C(=O)N[C@@H](C)C(=O)N[C@@H](C)C(=O)N[C@@H](C)C(=O)N[C@H](C)C(N)=O)NC(=O)[C@H](CC(C)C)NC(=O)[C@H](CCC(N)=O)NC(=O)[C@H](C)NC(=O)[C@H](Cc2c[nH]c3ccccc23)NC(=O)[C@H](Cc2ccc(O)cc2)NC(=O)[C@H](CCC(=O)O)NC1=O)[C@@H](C)O` [compound 631] (Ac-LTF[R5]EYWAQL[S8]AAAAA[dA]-NH2; staple 4-11), the EC50 in the data set with SJSA-1 is less than 5 µM.
Turning to `CCCC[C@H](NC(=O)[C@H](C)NC(=O)[C@H](C)NC(=O)[C@]1(C)CCCC=CCCCCCC[C@@](C)(NC(=O)[C@H](Cc2ccccc2)NC(=O)[C@@H](NC(=O)[C@H](CC(C)C)NC(C)=O)[C@@H](C)O)C(=O)N[C@@H](C)C(=O)N[C@@H](Cc2ccc(O)cc2)C(=O)N[C@@H](Cc2c[nH]c3ccccc23)C(=O)N[C@@H](C)C(=O)N[C@@H](CCC(N)=O)C(=O)N[C@@H](CC(C)C)C(=O)N1)C(=O)N[C@@H](C)C(N)=O` (single isomer, unassigned) [compound 68], the EC50 with SJSA-1 was less than 5 µM.
On to `CCCC[C@H](NC(=O)[C@H](C)NC(=O)[C@H](C)NC(=O)[C@]1(C)CCCC=CCCCCCC[C@@](C)(NC(=O)[C@H](Cc2ccccc2)NC(=O)[C@@H](NC(=O)[C@H](CC(C)C)NC(C)=O)[C@@H](C)O)C(=O)N[C@@H](C)C(=O)N[C@@H](Cc2ccc(O)cc2)C(=O)N[C@@H](Cc2c[nH]c3ccccc23)C(=O)N[C@@H](C)C(=O)N[C@@H](CCC(N)=O)C(=O)N[C@@H](CC(C)C)C(=O)N1)C(=O)N[C@H](C)C(N)=O` (single isomer, unassigned) [compound 75], for which the EC50 with SJSA-1 is less than 5 µM. Moreover, in the data set with SJSA-1 cells, the “6.25 μM % Lysed cells (1 h LDH)” value is given as −1%, the “25 μM % Lysed cells (1 h LDH)” value was found to be 1% and the “50 μM % Lysed cells (1 h LDH)” value came out at 1%.
As to `CCCC[C@H](NC(=O)[C@H](C)NC(=O)[C@H](C)NC(=O)[C@]1(C)CCCC=CCCCCCC[C@@](C)(NC(=O)[C@H](Cc2ccccc2)NC(=O)[C@@H](NC(=O)[C@H](CC(C)C)NC(C)=O)[C@@H](C)O)C(=O)N[C@@H](C)C(=O)N[C@@H](Cc2ccc(O)cc2)C(=O)N[C@@H](Cc2c[nH]c3ccccc23)C(=O)N[C@@H](C)C(=O)N[C@@H](CCC(N)=O)C(=O)N[C@@H](CC(C)C)C(=O)N1)C(=O)N[C@H](C)C(N)=O` (single isomer, unassigned) [compound 74], in the data set with SJSA-1, the EC50 was less than 5 µM.
Still for that read-out and setting: the same measure for `CC(=O)N[C@@H](CC(C)C)C(=O)N[C@H](C(=O)N[C@@H](Cc1ccccc1)C(=O)N[C@]1(C)CCCCCC/C=C/CCC[C@@](C)(C(=O)N[C@@H](C)C(=O)N[C@@H](C)C(=O)N[C@@H](C)C(=O)N[C@@H](C)C(=O)N[C@H](C)C(=O)N[C@H](C)C(N)=O)NC(=O)[C@H](CC(C)C)NC(=O)[C@H](CCC(N)=O)NC(=O)[C@H](C)NC(=O)[C@H](Cc2c[nH]c3ccccc23)NC(=O)[C@H](Cc2ccc(O)cc2)NC(=O)[C@H](CCC(=O)O)NC1=O)[C@@H](C)O` [compound 572]: less than 5 µM; for `CC(=O)N[C@@H](CC(C)C)C(=O)N[C@H](C(=O)N[C@@H](Cc1ccccc1)C(=O)N[C@]1(C)CCCCCCC=CCCC[C@@](C)(C(=O)N[C@@H](C)C(=O)N[C@@H](C)C(=O)N[C@@H](C)C(=O)N[C@@H](C)C(=O)N[C@@H](C)C(=O)N[C@H](C)C(N)=O)NC(=O)[C@H](CC(C)C)NC(=O)[C@H](CCC(N)=O)NC(=O)[C@H](C)NC(=O)[C@H](Cc2c[nH]c3ccccc23)NC(=O)[C@H](Cc2ccc(O)cc2)NC(=O)[C@H](CCC(=O)O)NC1=O)[C@@H](C)O` (single isomer, unassigned) [compound 449]: less than 5 µM.
Same read-out and setting: the same measure for `CC(=O)N[C@@H](CC(C)C)C(=O)N[C@H](C(=O)N[C@@H](Cc1ccccc1)C(=O)N[C@]1(C)CCCCCC/C=C/CCC[C@@](C)(C(=O)N[C@@H](C)C(=O)N[C@@H](C)C(=O)N[C@@H](C)C(=O)N[C@@H](C)C(=O)N[C@@H](C)C(=O)N[C@@H](C)C(N)=O)NC(=O)[C@H](CC(C)C)NC(=O)[C@H](CCC(N)=O)NC(=O)[C@H](C)NC(=O)[C@H](Cc2c[nH]c3ccccc23)NC(=O)[C@H](Cc2ccc(O)cc2)NC(=O)[C@H](CCC(=O)O)NC1=O)[C@@H](C)O` [compound 573]: less than 5 µM.

For the origin of these results see patent US20200369728A1, “PEPTIDOMIMETIC MACROCYCLES AND USES THEREOF” (Aileron Therapeutics, Inc., priority 2015, published 2020).
